Drawing on patent publication US12351570B2 (MERCK PATENT GMBH, priority 2018, dated 2025), this text covers IC50 for 40 compounds.

For this assay, the system named is MDA-MB-231 cells. As to the kind of experiment: Extracellular lactate production inhibition after 4 h, MDA-MB-231. As to conditions: Homo sapiens, MDA-MB-231.
Procedure: Extracellular Lactate Production Inhibition after 4 h
Cells were plated in growth media supplemented with 10% FBS, followed by overnight recovery at 37° C., 5% CO2. […] Plates were then moved for 4 h incubation at 37° C., 5% CO2 with subsequent 20 μl media transfer to empty 384-well transparent plates. […] Plates were short-spun and measured kinetically in absorbance mode (530 nm, 12 min measurement time with 2-minute intervals between subsequent readouts at 30° C.). Differences in the signal between T8 min and T0min were normalized to vehicle (cells w/ 0.25% DMSO) and quasi-positive (LCIS buffer w/ 0.25% DMSO) controls and plotted against logarithmically-transformed test compound concentrations with fitting the 4-parameter model in GraphPad Prism software.
`O=C(O)c1ccc(C#Cc2ccccc2NS(=O)(=O)c2ccc3c(c2)CCO3)cc1` [Compound 3, 4-{2-[2-(2,3-dihydro-1-benzofuran-5-sulfonamido)phenyl]ethynyl}benzoic acid] gave an IC50 of 1000 to 100000 nM. The value for `CN(c1ccccc1C#Cc1ccc(C(=O)O)cc1)S(=O)(=O)c1ccc2ccccc2c1` [Compound 4, 4-{2-[2-(N-methylnaphthalene-2-sulfonamido)phenyl]ethynyl}benzoic acid] was 100 to 1000 nM. The same measure for `O=C(O)c1ccc(C#Cc2ccccc2NS(=O)(=O)c2ccc3ccccc3c2)cc1O` [Compound 5, 2-hydroxy-4-{2-[2-(naphthalene-2-sulfonamido)phenyl]ethynyl}benzoic acid]: 1000 to 100000 nM; for `O=C(O)c1ccc(C#Cc2ccccc2CS(=O)(=O)c2ccc3ccccc3c2)cc1` [Compound 6, 4-(2-{2-[(naphthalene-2-sulfonyl)methyl]phenyl}ethynyl)benzoic acid]: 100 to 1000 nM.

`O=C(O)c1ccc(C#Cc2ccccc2NS(=O)(=O)c2ccc3c(c2)CCCC3)cc1` [Compound 7, 4-{2-[2-(5,6,7,8-tetrahydronaphthalene-2-sulfonamido)phenyl]ethynyl}benzoic acid] came in with a half-inhibitory concentration (IC50) of 100 to 1000 nM.

As for `COc1ccc(S(=O)(=O)Nc2ccccc2C#Cc2ccc(C(=O)O)cc2)c2ccccc12` [Compound 8, 4-{2-[2-(4-methoxynaphthalene-1-sulfonamido)phenyl]ethynyl}benzoic acid], the half-maximal inhibitory concentration (IC50) was 100 to 1000 nM. The value for `COc1cccc(S(=O)(=O)Nc2ccccc2C#Cc2ccc(C(=O)O)c(C)c2)c1` [Compound 9, 4-{2-[2-(3-methoxybenzenesulfonamido)phenyl]-ethynyl}-2-methylbenzoic acid] was 1000 to 100000 nM; that for `Cc1cc(C#Cc2ccccc2NS(=O)(=O)c2ccc3ccccc3c2)ccc1C(=O)O` [Compound 10, 2-methyl-4-{2-[2-(naphthalene-2-sulfonamido)phenyl]ethynyl}benzoic acid] was 100 to 1000 nM; that for `COc1ccc(S(=O)(=O)Nc2ccccc2C#Cc2ccc(C(=O)O)cc2)c2c1CCCC2` [Compound 11, 4-{2-[2-(4-methoxy-5,6,7,8-tetrahydronaphthalene-1-sulfonamido)phenyl]ethynyl}benzoic acid] was 100 to 1000 nM. The same measure for `COc1cccc(S(=O)(=O)Nc2ccccc2C#Cc2ccc(C(=O)O)nc2)c1` [Compound 12, 5-{2-[2-(3-methoxybenzenesulfonamido)phenyl]-ethynyl}pyridine-2-carboxylic acid]: 1000 to 100000 nM. The value for `O=C(O)c1ccc(C#Cc2ccccc2NS(=O)(=O)c2ccc3ccccc3c2)cc1F` [Compound 14, 2-fluoro-4-{2-[2-(naphthalene-2-sulfonamido)phenyl]ethynyl}benzoic acid] was 100 to 1000 nM; that for `O=C(O)c1ccc(C#Cc2cc(F)ccc2NS(=O)(=O)c2ccc3ccccc3c2)cc1` [Compound 15, 4-{2-[5-fluoro-2-(naphthalene-2-sulfonamido)phenyl]ethynyl}benzoic acid] was 100 to 1000 nM. The compound `O=C(NO)c1ccc(C#Cc2ccccc2NS(=O)(=O)c2ccc3ccccc3c2)cc1` [Compound 16, N-hydroxy-4-{2-[2-(naphthalene-2-sulfonamido)phenyl]ethynyl}benzamide] displayed a 50% inhibitory concentration (IC50) of 1000 to 100000 nM. `O=C(O)c1ccc(C#Cc2ccc(C(F)(F)F)cc2NS(=O)(=O)c2ccc3ccccc3c2)cc1` [Compound 17, 4-{2-[2-(naphthalene-2-sulfonamido)-4-(trifluoromethyl)phenyl]ethynyl}benzoic acid] returned a concentration for half-maximal inhibition (IC50) of 100 to 1000 nM.

In the case of `COc1ccc(S(=O)(=O)Nc2ccccc2C#Cc2ccc(C(=O)O)c(C)c2)c2ccccc12` [Compound 18, 4-{2-[2-(4-methoxynaphthalene-1-sulfonamido)phenyl]ethynyl}-2-methylbenzoic acid], the IC50 lay in the range of 100 to 1000 nM. The same measure for `COc1ccc(C#Cc2ccc(C(=O)O)cc2)c(NS(=O)(=O)c2ccc3ccccc3c2)c1` [Compound 19, 4-{2-[4-methoxy-2-(naphthalene-2-sulfonamido)phenyl]ethynyl}benzoic acid]: 100 to 1000 nM; for `O=C(O)c1ccc(C#Cc2ccccc2C[S+]([O-])c2ccc3ccccc3c2)cc1` (stereo not shown) [Compound 20, 4-(2-{2-[(naphthalene-2-sulfinyl)methyl]phenyl}ethynyl)benzoic acid]: 1000 to 100000 nM; for `COc1ccc(S(=O)(=O)Nc2ccccc2C#Cc2ccc(C(=O)O)c(C#N)c2)c2ccccc12` [Compound 21, 2-cyano-4-{2-[2-(4-methoxynaphthalene-1-sulfonamido)phenyl]ethynyl}benzoic acid]: 1000 to 100000 nM. Consider `Cc1c(S(=O)(=O)Nc2ccccc2C#Cc2ccc(C(=O)O)cc2)sc2ccc(Cl)cc12` [Compound 22, 4-{2-[2-(5-chloro-3-methyl-1-benzothiophene-2-sulfonamido)phenyl]ethynyl}benzoic acid], for which the half-inhibitory concentration (IC50) was in the range of 100 to 1000 nM. The same measure for `COc1ccc(S(=O)(=O)Nc2ccccc2C#Cc2ccc(C(=O)O)cc2)c(Cl)c1Cl` [Compound 23, 4-{2-[2-(2,3-dichloro-4-methoxybenzenesulfonamido)phenyl]-ethynyl}benzoic acid]: 100 to 1000 nM.

Take `N#Cc1cc(C#Cc2ccccc2NS(=O)(=O)c2ccc3ccccc3c2)ccc1C(=O)O` [Compound 24, 2-cyano-4-{2-[2-(naphthalene-2-sulfonamido)phenyl]ethynyl}benzoic acid]: the 50% inhibitory concentration (IC50) was in the range of 1000 to 100000 nM. The same measure for `COc1ccc(S(=O)(=O)Nc2ccc(F)cc2C#Cc2ccc(C(=O)O)cc2)c2ccccc12` [Compound 25, 4-{2-[5-fluoro-2-(4-methoxynaphthalene-1-sulfonamido)phenyl]ethynyl}benzoic acid]: 100 to 1000 nM; for `COc1ccc(S(=O)(=O)Nc2ccccc2C#Cc2cc(F)c(C(=O)O)c(F)c2)c2ccccc12` [Compound 27, 2,6-difluoro-4-{2-[2-(4-methoxynaphthalene-1-sulfonamido)phenyl]ethynyl}benzoic acid]: 1000 to 100000 nM. The same measure for `O=C(O)c1ccc(C#Cc2ccccc2NS(=O)(=O)c2ccc3ccccc3c2)cc1Cl` [Compound 28, 2-chloro-4-{2-[2-(naphthalene-2-sulfonamido)phenyl]ethynyl}benzoic acid]: 100 to 1000 nM; for `O=C(O)c1c(F)cc(C#Cc2ccccc2NS(=O)(=O)c2ccc3ccccc3c2)cc1F` [Compound 29, 2,6-difluoro-4-{2-[2-(naphthalene-2-sulfonamido)phenyl]ethynyl}benzoic acid]: 1000 to 100000 nM; for `O=C(O)c1ccc(C#Cc2ccccc2NS(=O)(=O)c2ccc3ccccc3c2)c(F)c1` [Compound 30, 3-fluoro-4-{2-[2-(naphthalene-2-sulfonamido)phenyl]ethynyl}benzoic acid]: 100 to 1000 nM. The same measure for `COc1ccc(S(=O)(=O)Nc2ccccc2C#Cc2ccc(C(=O)O)nc2)c2ccccc12` [Compound 31, 5-{2-[2-(4-methoxynaphthalene-1-sulfonamido)phenyl]ethynyl}pyridine-2-carboxylic acid]: 100 to 1000 nM; for `O=C(O)c1ccc(C#Cc2cccc(F)c2NS(=O)(=O)c2ccc3ccccc3c2)cc1` [Compound 32, 4-{2-[3-fluoro-2-(naphthalene-2-sulfonamido)phenyl]ethynyl}benzoic acid]: 100 to 1000 nM. `COc1cc(C#Cc2ccccc2NS(=O)(=O)c2ccc(OC)c3ccccc23)ccc1C(=O)O` [Compound 33, 2-methoxy-4-{2-[2-(4-methoxynaphthalene-1-sulfonamido)phenyl]ethynyl}benzoic acid] had an IC50 of 100 to 1000 nM. Turning to `O=C(O)c1ccc(C#Cc2ccccc2NS(=O)(=O)c2cnc(Cl)c(Br)c2)cc1` [Compound 34, 4-{2-[2-(5-bromo-6-chloropyridine-3-sulfonamido)phenyl]ethynyl}benzoic acid], the half-inhibitory concentration (IC50) was in the range of 1000 to 100000 nM.

`O=C(O)c1ccc(C#Cc2ccccc2NS(=O)(=O)c2cccc3ncccc23)cc1` [Compound 35, 4-{2-[2-(quinoline-5-sulfonamido)phenyl]ethynyl}benzoic acid]: the half-maximal inhibitory concentration (IC50) lay in the range of 1000 to 100000 nM. The same measure for `CCN(c1ccccc1C#Cc1ccc(C(=O)O)cc1)S(=O)(=O)c1ccc2ccccc2c1` [Compound 36, 4-{2-[2-(N-ethylnaphthalene-2-sulfonamido)phenyl]ethynyl}benzoic acid]: 1000 to 100000 nM; for `COc1ccc(S(=O)(=O)Nc2ccc(F)cc2C#Cc2ccc(C(=O)O)nc2)c2ccccc12` [Compound 37, 5-{2-[5-fluoro-2-(4-methoxynaphthalene-1-sulfonamido)phenyl]ethynyl}pyridine-2-carboxylic acid]: 100 to 1000 nM. The value for `O=C(O)c1ccc(C#Cc2ccccc2NS(=O)(=O)c2cnc3ccccc3c2)cc1` [Compound 40, 4-{2-[2-(quinoline-3-sulfonamido)phenyl]ethynyl}benzoic acid] was 1000 to 100000 nM; that for `Cc1ccc(C#Cc2ccc(C(=O)O)cc2)c(NS(=O)(=O)c2ccc3ccccc3c2)n1` [Compound 41, 4-{2-[6-methyl-2-(naphthalene-2-sulfonamido)pyridin-3-yl]ethynyl}benzoic acid] was 100 to 1000 nM; that for `COc1ccc(S(=O)(=O)Nc2ccccc2C#Cc2ccc(C(=O)O)nc2)c(C)c1C` [Compound 42, 5-{2-[2-(4-methoxy-2,3-dimethylbenzenesulfonamido)phenyl]-ethynyl}pyridine-2-carboxylic acid] was 100 to 1000 nM. In the case of `O=C(O)c1ccc(C#Cc2ccccc2NS(=O)(=O)c2ccc3cc(Cl)ccc3c2)cc1` [Compound 43, 4-{2-[2-(6-chloronaphthalene-2-sulfonamido)phenyl]ethynyl}benzoic acid], the 50% inhibitory concentration (IC50) was in the range of 100 to 1000 nM. The value for `COc1ccc(S(=O)(=O)Nc2ccccc2C#Cc2ccc(C(=O)O)c(F)c2)c2ccccc12` [Compound 45, 2-fluoro-4-{2-[2-(4-methoxynaphthalene-1-sulfonamido)phenyl]ethynyl}benzoic acid] was 100 to 1000 nM. The same measure for `Cc1ccc(C#Cc2ccc(C(=O)O)cc2)c(NS(=O)(=O)c2ccc3ccccc3c2)c1` [Compound 46, 4-{2-[4-methyl-2-(naphthalene-2-sulfonamido)phenyl]ethynyl}benzoic acid]: 100 to 1000 nM. In turn, `COc1ccc(S(=O)(=O)Nc2ccccc2C#Cc2ccc(C(=O)O)cc2)c(C)c1` [Compound 47, 4-{2-[2-(4-methoxy-2-methylbenzenesulfonamido)phenyl]ethynyl} benzoic acid] registered an IC50 of 100 to 1000 nM.

As a reminder, the IC50 is the concentration that inhibits the measured activity by half. High values mean weaker potency, low ones greater potency.
